Assay results from patent US11865105B2, “Sphingosine pathway modulating compounds for the treatment of cancers” (Enzo Biochem, Inc., priority 2017, dated 2024).

Experiments:
Huh7 cells = experiment: Apoptosis/necrosis assay (flow cytometry, GFP Certified Apoptosis/Necrosis detection kit); format: cell-based, human; conditions: 24 hours, SK1-I 10, 20, 40 μM, ozanimod 5, 10, 20 μM, ABC294640 10, 20, 40 μM
Description: (§1) Apoptosis/necrosis assays evaluating the effect of different concentrations of each of ozanimod, ABC294640 and SK1-I on the four human hepatocellular carcinoma cell lines, Hep G2, Hep 3B, Huh 7 and PLC-PRF5 were also performed.
(§2) The protocol used for the apoptosis assays was: • Plated cells in 6-well plates and incubated at 37° C. overnight. • Prepared concentrations of test compound and control compound DMSO in media. • Ozanimod: 5 μM, 10 μM, and 20 μM. • ABC294640: 10 μM, 20 μM, and 40 μM. • SK1-I: 10 μM, 20 μM, and 40 μM. • Control: 0.2% DMSO. • Aspirated the medium from the 6-well plates and added test compound concentrations in media or 0.2% DMSO control in media. Incubated at 37° C. for 24 hours. • Collected and processed the cells following the flow cytometry protocol of the GFP Certified® Apoptosis/Necrosis detection kit from Enzo Life Sciences, Inc. (product no. ENZ-51002; Farmingdale, NY, USA).
(§3) FIGS. 5-16 present graphs plotting the data from these 24-hour apoptosis assays for the different concentrations of compounds and no-drug control for the various cell lines. Channel FL2 picks up the apoptosis signal and channel FL3 picks up the necrosis signal. Data points in Quadrant 3 (Q3) in the graphs corresponds to cells undergoing apoptosis (cells positive for the apoptosis detection reagent of the assay). Data points in Quadrant 2 (Q2) in the graphs corresponds to cells that are positive for the apoptosis detection reagent and positive for the necrosis detection reagent of the assay (indicative of late-stage apoptosis).

PLC-PRF5 cells = experiment: as above; format: cell-based, human; conditions: 24 hours, SK1-I 10, 20, 40 μM, ozanimod 5, 10, 20 μM, ABC294640 10, 20, 40 μM
Description: as §1, §2, §3

Hep 3B cells = experiment: as above; format: cell-based, human; conditions: 24 hours, SK1-I 10, 20, 40 μM, ozanimod 10, 20, 40 μM, ABC294640 10, 20, 40 μM
Description: as §1
as §2, with “[…],” for “concentrations of test compound and control compound DMSO in media. • Ozanimod: 5 μM, 10 μM, and 20 μM. • ABC294640: 10 μM,”
as §3

Hep G2 cells = experiment: as above; format: cell-based, human; conditions: 24 hours, SK1-I 10, 20, 40 μM, ozanimod 10, 20, 40 μM, ABC294640 10, 20, 40 μM
Description: as §1
as §2, with “[…],” for “concentrations of test compound and control compound DMSO in media. • Ozanimod: 5 μM, 10 μM, and 20 μM. • ABC294640: 10 μM,”
as §3

[1] = test system: Jurkat cells (human T-cell leukemia cell line); experiment: Apoptosis assay; format: cell-based; conditions: SK1-I 10, 20 μM, ozanimod 5, 10 μM
Description: as §2, §3

[2] = test system: primary human hepatocytes; experiment: Apoptosis assay on normal (non-cancerous) primary human hepatocytes; format: cell-based; conditions: 24 hours; SK1-I 10, 20, 40 μM; ozanimod 2.5, 5, 10 μM; any concentration tested
Description: In still further experiments, the effects of SK1-I and ozanimod on normal (non-cancerous) primary human hepatocytes were investigated. Fresh human hepatocytes in a 12-well plate (HUF12) were obtained from Triangle Research Labs (Durham, NC, USA; part of Lonza Group) and handled according to the supplier's protocol. The shipping medium was aspirated from each well and replaced with 1 ml per well of warm Hepatocyte Maintenance Medium. The plate was then placed in a 5% CO2 incubator at 37° C. and the hepatocytes were allowed to acclimate overnight. The Hepatocyte Maintenance Medium was replaced before treatment with drug or no-drug control, and the hepatocytes were treated with 0 μM (no-drug control), 10 μM, 20 μM, or 40 μM SK1-I or 0 μM, 2.5 μM, 5 μM, or 10 μM ozanimod for 24 hours under incubation. The cells were then harvested and analyzed using the GFP Certified® Apoptosis/Necrosis detection kit. The results are shown in FIGS. 19A-D for SK1-I and FIGS. 20A-D for ozanimod as follows.

Jurkat cells = experiment: Cell viability effects (FIG. 21); format: cell-based, human; conditions: Jurkat cells without IL-2; 5 μM of each agent
[3] = test system: human hepatocellular carcinoma cell lines, Hep G2, Huh 7, and PLC-PRF5; experiment: MTT cell viability assay (48 hours); format: cell-based; conditions: Hep G2, Huh 7, PLC-PRF5
Description: The following MTT assay protocol was followed. • Prepared stock solutions: 50 mM ozanimod, 50 mM ABC294640, 10 mM SK1-I in DMSO. • Plated 20000 cells in 160 μl medium per well in 96-well plates for each cell line and incubated at 37° C. overnight. • Prepared compound serial dilutions: for ozanimod and ABC294640: dilute stock 50 mM 1:50 in medium to 1000 μM; for SK1-I, dilute stock 10 mM 1:50 in medium to […] them make serial 1:1.8 fold serial dilution to the titration. For negative control, diluted DMSO 1:50 to medium. • Added 40 μl negative control and serially titrated compounds to 160 μl of cells for each cell line. Performed in triplicate for each cell line. • Incubated at 37° C. for 72 hours. • Performed assay using Vybrant MTT Cell Proliferation Assay kit (V-13154) (Molecular Probes) from Thermo Fisher Scientific (Waltham, MA USA).
48-hour treatment MTT assays were also performed as follows.

SMILES | induction of apoptosis (Huh7 cells) | induction of apoptosis (PLC-PRF5 cells) | induction of apoptosis (Hep 3B cells) | induction of apoptosis (Hep G2 cells) | induction of apoptosis [1] | induction of apoptosis of primary human hepatocytes [2] | cell viability (Jurkat cells) | killing hepatocellular carcinoma cells, compared with PF-543 [3]
O=C(NCc1ccncc1)C12CC3C[C@H](C1)CC(c1ccc(Cl)cc1)(C3)C2 [ABC294640, (7 S)-3-(4-chlorophenyl)-N-(pyridin-4-ylmethyl)adamantane-1-carboxamide] | failed to induce apoptosis | did not substantially induce apoptosis | did not substantially induce apoptosis | failed to induce apoptosis | – | – | – | –
CC(C)Oc1ccc(-c2nc(-c3cccc4c3CC[C@@H]4NCCO)no2)cc1C#N [ozanimod, 5-[3-[(1S)-1-(2-hydroxyethylamino)-2,3-dihydro-1H-inden-4-yl]-1,2,4-oxadiazol-5-yl]-2-propan-2-yloxybenzonitrile] | strongly induced apoptosis | strongly induced apoptosis | strongly induced apoptosis | strongly induced apoptosis | strongly induced apoptosis | did not induce apoptosis | strongly decreases viability | –
CCCCCc1ccc(/C=C/[C@H](O)[C@@H](CO)NC)cc1 [SK1-I, (E,2R,3S)-2-(methylamino)-5-(4-pentylphenyl)pent-4-ene-1,3-diol] | strongly induced apoptosis | strongly induced apoptosis | strongly induced apoptosis | strongly induced apoptosis | strongly induced apoptosis | did not induce apoptosis | – | more effective at killing hepatocellular carcinoma cells than PF-543
